Assay results taken from ChEMBL document CHEMBL1201862, “PubChem BioAssay data set” (2004).
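Briefly, cells in 96-well plates were exposed to five compound concentrations for 48 h, and endpoints were estimated by linear interpolation. Abbreviation: GI50, concentration required for 50% inhibition of growth.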 Activity calls are given as the source filed them. Cut-off read from the data, not from the text of the source: active = GI50 up to about 1.1 µM and inactive = higher.

What was measured:
Assay in all cases: growth of human tumour cells (NCI), 48 h
CAKI-1 = system: CAKI-1
SF-268 = system: SF-268
UO-31 = system: UO-31
Hs-578T = system: Hs-578T
NCI/ADR-RES = system: NCI/ADR-RES
SR = system: SR
Malme-3M = system: Malme-3M
OVCAR-4 = system: OVCAR-4
NCI-H460 = system: NCI-H460
TK-10 = system: TK-10
HOP-92 = system: HOP-92
OVCAR-3 = system: OVCAR-3
A498 = system: A498
NCI-H226 = system: NCI-H226
BT-549 = system: BT-549
CCRF-CEM = system: CCRF-CEM
DU-145 = system: DU-145
SF-539 = system: SF-539
HCC 2998 = system: HCC 2998
SNB-75 = system: SNB-75

| Compound | GI50 (CAKI-1) | GI50 (SF-268) | GI50 (UO-31) | GI50 (Hs-578T) | GI50 (NCI/ADR-RES) | GI50 (SR) | GI50 (Malme-3M) | GI50 (OVCAR-4) | GI50 (NCI-H460) | GI50 (TK-10) | GI50 (HOP-92) | GI50 (OVCAR-3) | GI50 (A498) | GI50 (NCI-H226) | GI50 (BT-549) | GI50 (CCRF-CEM) | GI50 (DU-145) | GI50 (SF-539) | GI50 (HCC 2998) | GI50 (SNB-75) |
| --- | --- | --- | --- | --- | --- | --- | --- | --- | --- | --- | --- | --- | --- | --- | --- | --- | --- | --- | --- | --- |
| NC(Cc1ccccc1)P(=O)(O)O (stereo unspecified) | > 100 µM (inactive) | > 100 µM (inactive) | > 100 µM (inactive) | > 100 µM (inactive) | > 100 µM (inactive) | > 100 µM (inactive) | > 100 µM (inactive) | > 100 µM (inactive) | > 100 µM (inactive) | > 100 µM (inactive) | > 100 µM (inactive) | > 100 µM (inactive) | > 100 µM (inactive) | > 100 µM (inactive) | > 100 µM (inactive) | > 100 µM (inactive) | – | – | – | – |
| c1ccc(CSC2(SCc3ccccc3)CCCCC2)cc1 | > 10 µM (inactive) | > 10 µM (inactive) | > 10 µM (inactive) | > 10 µM (inactive) | > 10 µM (inactive) | > 10 µM (inactive) | > 10 µM (inactive) | > 10 µM (inactive) | > 10 µM (inactive) | > 10 µM (inactive) | > 10 µM (inactive) | > 10 µM (inactive) | > 10 µM (inactive) | > 10 µM (inactive) | – | > 10 µM (inactive) | > 10 µM (inactive) | > 10 µM (inactive) | > 10 µM (inactive) | > 10 µM (inactive) |
| O[C@@H]1C[C@@H]2N[C@@](O)(C[C@@H]2O)[C@H]1O | – | > 100 µM (inactive) | > 100 µM (inactive) | > 100 µM (inactive) | > 100 µM (inactive) | > 100 µM (inactive) | > 100 µM (inactive) | > 100 µM (inactive) | > 100 µM (inactive) | > 100 µM (inactive) | > 100 µM (inactive) | > 100 µM (inactive) | > 100 µM (inactive) | > 100 µM (inactive) | – | > 100 µM (inactive) | > 100 µM (inactive) | > 100 µM (inactive) | > 100 µM (inactive) | 84.3 µM (inactive) |
| CCC1(c2ccc(OC)c(OC)c2)CCN(S(=O)(=O)c2ccc(C)cc2)C1 (stereo unspecified) | > 100 µM (inactive) | > 100 µM (inactive) | > 100 µM (inactive) | – | 72.8 µM (inactive) | > 10 µM (inactive) | – | 39.4 µM (inactive) | 64 µM (inactive) | > 100 µM (inactive) | – | > 100 µM (inactive) | – | > 100 µM (inactive) | > 100 µM (inactive) | > 100 µM (inactive) | > 100 µM (inactive) | > 100 µM (inactive) | > 100 µM (inactive) | > 100 µM (inactive) |
| CCCN(CCC)C(=O)c1c(N2CCN(C)CC2)c2cccnc2n2c(C)cnc12 | 60.8 µM (inactive) | > 100 µM (inactive) | 70 µM (inactive) | > 100 µM (inactive) | > 100 µM (inactive) | 39.5 µM (inactive) | > 100 µM (inactive) | > 100 µM (inactive) | > 100 µM (inactive) | > 100 µM (inactive) | > 100 µM (inactive) | 94.8 µM (inactive) | 78.5 µM (inactive) | > 100 µM (inactive) | – | > 100 µM (inactive) | > 100 µM (inactive) | > 100 µM (inactive) | – | > 100 µM (inactive) |
| O=C1CCCCCCCCCCC1CCCCCBr (stereo unspecified) | 31.2 µM (inactive) | 30.8 µM (inactive) | 26.1 µM (inactive) | 46.8 µM (inactive) | 21.7 µM (inactive) | 24.7 µM (inactive) | 15.8 µM (inactive) | 16.9 µM (inactive) | 36.6 µM (inactive) | 44 µM (inactive) | 18.4 µM (inactive) | 17.4 µM (inactive) | 14.4 µM (inactive) | 20.8 µM (inactive) | – | 17 µM (inactive) | 28.7 µM (inactive) | 22.8 µM (inactive) | 18.5 µM (inactive) | 16.3 µM (inactive) |
| COc1ccccc1C1c2cc3c(cc2OC(N2CCOCC2)C1C)OCO3 (stereo unspecified) | – | 16.1 µM (inactive) | 15.9 µM (inactive) | 13.2 µM (inactive) | 22.9 µM (inactive) | 15.8 µM (inactive) | – | – | 16.6 µM (inactive) | 22 µM (inactive) | – | 13 µM (inactive) | – | – | – | 13.2 µM (inactive) | 18.5 µM (inactive) | 14.2 µM (inactive) | – | – |
| CC1(C)C(CCO)CC1n1cc(I)c(=O)[nH]c1=O (stereo unspecified) | > 100 µM (inactive) | > 100 µM (inactive) | > 100 µM (inactive) | 90.6 µM (inactive) | > 100 µM (inactive) | – | – | > 100 µM (inactive) | – | > 100 µM (inactive) | > 100 µM (inactive) | > 100 µM (inactive) | > 100 µM (inactive) | > 100 µM (inactive) | – | > 100 µM (inactive) | > 100 µM (inactive) | > 100 µM (inactive) | > 100 µM (inactive) | > 100 µM (inactive) |
| O=S(=O)([C-]([I+]c1ccccc1)S(=O)(=O)C(F)(F)C(F)(F)C(F)(F)C(F)(F)F)C(F)(F)C(F)(F)C(F)(F)C(F)(F)F | 13.2 µM (inactive) | 18.5 µM (inactive) | 13.2 µM (inactive) | 20.1 µM (inactive) | 24.3 µM (inactive) | 4.14 µM (inactive) | 11 µM (inactive) | 2.95 µM (inactive) | 17.7 µM (inactive) | 16.3 µM (inactive) | 8.77 µM (inactive) | 15.9 µM (inactive) | 14.8 µM (inactive) | 3.97 µM (inactive) | 15.2 µM (inactive) | 4.06 µM (inactive) | – | 15.5 µM (inactive) | 20 µM (inactive) | 14.8 µM (inactive) |
| O=[N+]([O-])/C(C(Cl)=C(Cl)Cl)=C(\Nc1cccc2cccnc12)SCc1ccccc1 | 20.7 µM (inactive) | 17.3 µM (inactive) | 18.3 µM (inactive) | < 0.01 µM (active) | 21.2 µM (inactive) | – | 15.3 µM (inactive) | 24.4 µM (inactive) | 21 µM (inactive) | – | – | 15.5 µM (inactive) | 26.7 µM (inactive) | 20.3 µM (inactive) | 16.9 µM (inactive) | 14.9 µM (inactive) | 21.5 µM (inactive) | 16.9 µM (inactive) | 18.2 µM (inactive) | 18.3 µM (inactive) |
| CCO[C@]12CCC[C@H]1[C@@H]1C(=O)c3ccccc3C(=O)C1=C(C)O2 | 55.8 µM (inactive) | 30.8 µM (inactive) | > 100 µM (inactive) | > 100 µM (inactive) | > 100 µM (inactive) | 22.3 µM (inactive) | > 100 µM (inactive) | 26.3 µM (inactive) | > 100 µM (inactive) | > 100 µM (inactive) | 44.9 µM (inactive) | 22 µM (inactive) | 76 µM (inactive) | – | – | 33.5 µM (inactive) | 58.1 µM (inactive) | 29.4 µM (inactive) | > 100 µM (inactive) | 58.6 µM (inactive) |
| CC1CC(N2CCOCC2)=Nc2ccccc2N1Cc1ccccc1 (stereo unspecified) | 25.2 µM (inactive) | 74 µM (inactive) | > 100 µM (inactive) | 34.4 µM (inactive) | 73.8 µM (inactive) | – | 19 µM (inactive) | 56.2 µM (inactive) | > 100 µM (inactive) | > 100 µM (inactive) | – | 43.9 µM (inactive) | 20.5 µM (inactive) | 51.2 µM (inactive) | 66.2 µM (inactive) | > 100 µM (inactive) | > 100 µM (inactive) | – | – | – |
| CO[C@]12C#CC=CC#C[C@@H](O)[C@]3(CCC1)O[C@@]23c1cccc(O)c1 | > 100 µM (inactive) | > 100 µM (inactive) | > 100 µM (inactive) | > 100 µM (inactive) | > 100 µM (inactive) | – | – | > 100 µM (inactive) | > 100 µM (inactive) | > 100 µM (inactive) | – | > 100 µM (inactive) | > 100 µM (inactive) | > 100 µM (inactive) | > 100 µM (inactive) | – | > 100 µM (inactive) | – | > 100 µM (inactive) | > 100 µM (inactive) |
| O=[N+]([O-])c1ccc2c(c1)S(=O)(=O)N1Cc3ccccc3CCN21 | > 100 µM (inactive) | 40.7 µM (inactive) | > 100 µM (inactive) | 26.7 µM (inactive) | > 100 µM (inactive) | > 100 µM (inactive) | > 100 µM (inactive) | > 100 µM (inactive) | > 100 µM (inactive) | > 100 µM (inactive) | 62.2 µM (inactive) | 48.8 µM (inactive) | > 100 µM (inactive) | > 100 µM (inactive) | – | > 100 µM (inactive) | > 100 µM (inactive) | 54.5 µM (inactive) | > 100 µM (inactive) | 59.3 µM (inactive) |
| C=C1c2cc3c(cc2CC12Cc1cc4c(cc1C2=O)CCC4)CCC3 (stereo unspecified) | > 100 µM (inactive) | > 100 µM (inactive) | > 100 µM (inactive) | > 100 µM (inactive) | > 100 µM (inactive) | 36.1 µM (inactive) | > 100 µM (inactive) | > 100 µM (inactive) | > 100 µM (inactive) | > 100 µM (inactive) | > 100 µM (inactive) | > 100 µM (inactive) | > 100 µM (inactive) | – | – | > 100 µM (inactive) | > 100 µM (inactive) | > 100 µM (inactive) | > 100 µM (inactive) | > 100 µM (inactive) |
| NCCO/C=C/C(N)C(=O)O (stereo unspecified) [AMINOETHOXYVINYLGLYCINE] | > 100 µM (inactive) | > 100 µM (inactive) | > 100 µM (inactive) | > 100 µM (inactive) | > 100 µM (inactive) | – | – | > 100 µM (inactive) | > 100 µM (inactive) | > 100 µM (inactive) | > 100 µM (inactive) | > 100 µM (inactive) | – | > 100 µM (inactive) | > 100 µM (inactive) | > 100 µM (inactive) | > 100 µM (inactive) | > 100 µM (inactive) | > 100 µM (inactive) | > 100 µM (inactive) |
